Results as given in patent publication US20100150999A1, “THERAPY OF CANCER BASED ON TARGETING ADAPTIVE, INNATE AND/OR […] OF THE IMMUNE RESPONSE” (priority 2006, published 2010).

Tests used:
[1] = tested on: regulatory T cells, myeloid cells, NK cells, tumor-specific CD8+ T cells; experiment: Flow cytometric analysis of immune cells in spleen, draining lymph nodes and tumor after treatment; format: in vivo, mice
Method: FIG. 9. Changes in immune cells after tritherapy on day 25. […] Groups of mice were sacrificed before treatment (day 0), 24 hour after CTX alone (day 1) or on days 4, 7 or 11 after tritherapy administration. Spleen, tumor draining lymph nodes and tumor were excised, ground to prepare the cell suspensions, stained and analyzed by flow cytometry. Pooled data of two experiments are shown (n=4-6 mice). Bars represent mean values and the error bars correspond to standard error of the mean. *<0.05 **<0.01. A) Percentage of CD4^+ cells that express CD25 and FoxP3. B) Percentage of CD4^+ cells that are CD25^− and FoxP3^+. C) Percentage of CD4^+ cells that express FoxP3. D) Percentage of CD8^+ cells that are tetramer^+ and CD44^+. E) Percentage of CD11c+ cells. F) Percentage of CD11 b^+ cells. G) Percentage of GR1+ cells. H) Percentage of CD11 b^+ GR1+ positive cells.
FIG. 11. Phenotype of myeloid cells induced by tritherapy and by tumor growth. […] Tritherapy treated mice received on day 24, 2.5 mg CTX i.p and 24 h later, 50 μg CyaA-E7 and 30 μg CpG-B/DOTAP. PBS treated mice received 200 μl of PBS on day 25. […] Spleens were excised, ground to prepare the cell suspensions, stained and analyzed by flow cytometry. […]
FACScalibur (Becton Dickinson, Franklin Lakes, N.J., USA) was used for flow cytometry and events were analyzed with CELLQuest software (Becton Dickinson, Franklin Lakes, N.J., USA).

TC-1 cells = settings: RAG1-/- mice, 2.5 mg CTX i.p. day 24
Method: Specific pathogen-free 5-week-old female C57BL/6 mice were purchased from Charles River (L'Arbresle, France) and were kept in the Pasteur Institute animal facilities under pathogen-free conditions with water and food ad libitum. C57BL/6-RAG1^−/− mice were obtained from the Jackson Laboratory, USA. Experiments involving animals were conducted according to the institutional guidelines for animal care.
Tumor cells lines (5×10^5 TC-1 cells or 4×10^6 EL4-E7 cells) were inoculated into the shaved left back of C57BL/6 mice in 200 μl volume of PBS.

[2] = tested on: TC-1 cells expressing HPV16-E6 and HPV16-E7; experiment: TC-1 tumor model in C57BL/6 mice (tumor growth, eradication, survival); format: in vivo; settings: for Effect on tumor growth: large TC-1 tumors, treated day 24/25
Method: TC-1 cells expressing HPV16-E6 and HPV16-E7 proteins derived from primary mouse lung epithelial cells were obtained from the American Type Culture Collection (LGC Promochem, Molsheim, France) (14). EL4-E7 cells, a mouse lymphoma expressing HPV16-E7 (15). Cells were maintained in RPMI 1640 with GlutaMAX supplemented with 10% heat-inactivated fetal calf serum, 100 units/ml penicillin, 100 μg/ml streptomycin, 0.4 mg/ml geneticin and 5×10^−5 mol/l 2-mercaptoethanol (Life Technologies, Cergy-Pontoise, France).
Thirty μg of CpG ODNs or pU were diluted in 50 μl of Optimen medium (Gibco, Grand Island, N.Y., USA) and mixed with 60 μg of DOTAP (Roche, Mannheim, Germany) diluted in 100 μl of Optimen. The rest of the reagents were diluted in PBS before injection. Cyclophosphamide (CTX) (Sigma, Steinheim, Germany) and doxorubicin (DOX) (Calbiochem, La Jolla, Calif., USA) were diluted respectively in PBS and in sterile water before injection. The different antigenic formulations and adjuvants were injected simultaneously except chemotherapeutic agents that were given 24 h before vaccine. Intravenous administrations were performed by retroorbital injection in a volume of 200 μl, intratumoral administrations were done by injection in a volume of 50 μl and subcutaneous administration were performed in 200 μl.
Tumor growth data were analyzed by non-linear mixed effect models using Monolix software (http://www.math.u-psud.fr/˜lavielle/monolix/). Mean diameters of tumors over time were fitted using the model described in (17) and treatments were compared using the Likelihood Ratio test. Kaplan-Meier plots were used to analyzed survival, and a log rank test was used to examine statistical significance of differences in the survival curves using Prism software (GraphPad Software, Inc. San Diego, USA). Data from in vivo CTL and tetramer staining were compared by ANOVA followed by Dunnett posttest. p values less than 0.05 were considered to be statistically significant.

## O=P1(N(CCCl)CCCl)NCCCO1 (stereo not shown) [CTX, Cyclophosphamide]
[1]; four days after administration, from around 50%
  Percentage of CD25+FoxP3+/CD4+ in tumor-infiltrated lymphocytes: below 30%
[1]; spleen and lymph node, TC-1 tumor-bearing mice
  Lymphodepletion: transient lymphodepletion in spleen and lymph node that reverted by day 7
TC-1 cells
  Tumor growth delay: not observed
[2]
  Effect on tumor growth: significantly delayed tumor growth
[2]; listed as cyclophosphamide
  Effect on tumor growth: transiently control tumor growth
[2]; without CyaA-E7, treated day 24/25
  Induction of tumor regression / complete eradication: not able to induce the complete eradication

## polyinosinic-polycytidylic acid [PIC]
[2]
  Effect on tumor growth: none of these TLR ligands administered alone had any effect on the tumor growth
